Measured values reported in patent US12161641B2, “Treatments and prevention of opioid neonatal abstinence syndrome” (Ohio State Innovation Foundation, priority 2016, dated 2024).

Key:
[1] = Cumulative injections of 6β-naltrexol: tissue levels, 1 versus 4 injections; assay type: in vivo, mice
Procedure: While 6β-naltrexol is relatively excluded from adult brain, it might accumulate slowly upon multiple dosing because of slow exit from the brain. Therefore, experiments were conducted to determine whether 6β-naltrexol accumulates in tissues over time after chronic delivery, and especially through retention in adult brain. After 4 injections of 6β-naltrexol over a 24 hr period (every 6 hrs), 6β-naltrexol levels were measured in fetal and maternal tissues 4 hrs after the last dose, and accumulation assessed in comparison to a single injection with a 4 hr survival. […] However, this was not significant (p>0.2). Also, 6β-naltrexol trended towards greater accumulation in liver than brain (p=0.084 for comparison of adult liver vs adult brain after 4 injections). Likewise, 6β-naltrexol trended towards greater accumulation in embryos than adults (p=0.063 for comparison of fetal vs adult brain after 4 injections).

[2] = adult mice; 10 minutes after injection; cited from earlier work
pre-weaning age mice = assay: Naloxone-induced withdrawal jumping after morphine dosing in early postnatal mice; assay type: in vivo
Procedure: Animals were injected with morphine alone or morphine mixed with increasing amounts of 6β-naltrexol. Injections were started on postnatal day 12 (PD12) and continued for 5 days. On days 1-3 morphine was injected at 10 mg/kg, and at 20 mg/kg on days 4 and 5. On day 6 (PD18) a final injection of 20 mg/kg was made, and 3 hours later mice were injected with 30 mg/kg naloxone to induce withdrawal. All injections were subcutaneous. When Morphine was co-injected with 6β-naltrexol the latter was held at a constant ratio when the Morphine dose was increased on days 4-6. Because of the changing Morphine dosages the 6β-naltrexol dose is reported as a ratio relative to Morphine, or as a dose range. Immediately upon injection with naloxone mice were placed in a clear plastic container with a 6 inch square base and 10 inches tall, with a lid. Withdrawal jumping was videotaped and jumps were scored in a 15 minute interval.
Summary data are presented as means+1 SEM unless otherwise indicated Continuous data (drug concentrations) were analyzed using one-way ANOVA and post hoc comparisons were made using either Dunnett's procedure (for one-to-many comparisons) or t-tests (for all-pairs contrasts). In the latter case, p-values were adjusted for multiple comparisons using Hommel's method (Hommel, G. (1988) Biometrika 75:383-386). Data were log transformed to account for heteroscedasticity. When ratio values such as the brain/plasma ratio were compared, these were log-transformed before analysis to account for the constrained structure of ratio variables (e.g., Heslop, D. (2009) Geophys. J. Int. 178:159-161; Schilling K, et al. (2012) J Neurosci. 32:12651-12656). The dependence of jumping behavior on 6β-naltrexol levels was modelled using a 4-parametric log-normal curve taking into account that the response was a count variable. AUCs were integrated over the time span analyzed (i.e., from 0 to 240 min; Wolfsegger, M J, et al. (2009) J Pharmacokinet Pharmacodyn 36:479-494). Confidence intervals for AUCs were obtained by bootstrapping, as recommended in Jaki & Wolfsegger (Jaki, T, et al (2009) Pharmaceutical Statistics 8:12-24). All statistical procedures were implemented in R (R Core Team, 2015), using the packages multcomp (Hothorn, T, et al. (2008) Biometrical Journal 50:346-363) for multiple comparisons, PK (Jaki, T, et al. (2011) Pharmaceutical Statistics 10:284-288) for pharmacokinetic analyses, and drc (Ritz, C, et al. (2005) Bioassay analysis using R. J. Stat. Softw. 12:22) for dose-response fitting.
Considering that 6β-naltrexol continues to penetrate the brain at high levels prior to PD20 experiments were conducted to determine whether concomitant administration of 6β-naltrexol reduces withdrawal behaviors in pre-weaning age mice. A morphine dosing schedule was adapted based on studies in early postnatal rats and adult mice (Kest B. et al. (2002) Neuroscience 115:463-469; Jones, K L, et al. (1995) Behav. Neurosci. 109:1189-1198). Mice were injected with morphine alone, with morphine in combination with increasing concentrations of 6β-naltrexol, or saline alone, starting at P12 and continuing for 6 days. Withdrawal was then induced with an injection of naloxone. There was robust jumping characteristic of adult withdrawal behavior (Kest B, et al. (2002) Neuroscience 115.463-469), but not previously reported for pre-weaning mice or rats to our knowledge. […] At the highest dose tested, 0.5-1.0 mg/kg (= 1/20th that of morphine), withdrawal jumping is 94% reduced. The lowest 6β-naltrexol dose tested, 0.0033-0.0066 mg/kg (= 1/3000th that of morphine) caused a 20% decrease in jumping. There is also a time component to the effect of 6β-naltrexol on jumping behavior (FIG. 3B). As 6β-naltrexol levels were increased the jumps observed in a 15 minute testing bout were increasingly delayed. […]

SMILES: Oc1ccc2c3c1O[C@H]1[C@H](O)CC[C@@]4(O)[C@@H](C2)N(CC2CC2)CC[C@]314 [6β-naltrexol]
- increase of 6β-naltrexol after cumulative injections, average for all tissues ([1]; 4 injections over 24 hr vs single injection, 4 hr survival, not significant (p>0.2)): ~1.5 fold
- 6β-naltrexol level, Adult Brain, 1 injection ([1]; adult brain, 1 injection of 10 mg/kg, 4 hr survival): 110
- 6β-naltrexol level, Adult Brain, 4 injections in 24 hrs ([1]; adult brain, 4 injections of 10 mg/kg in 24 hrs, 4 hr survival after last dose): 160
- 6β-naltrexol level, Adult Liver, 1 injection ([1]; adult liver, 1 injection of 10 mg/kg, 4 hr survival): 280
- 6β-naltrexol level, Adult Liver, 4 injections in 24 hrs ([1]; adult liver, 4 injections of 10 mg/kg in 24 hrs, 4 hr survival after last dose): 360
- 6β-naltrexol level, Embryo Brain, 1 injection ([1]; embryo brain, 1 injection of 10 mg/kg, 4 hr survival): 210
- 6β-naltrexol level, Embryo Brain, 4 injections in 24 hrs ([1]; embryo brain, 4 injections of 10 mg/kg in 24 hrs, 4 hr survival after last dose): 290
- 6β-naltrexol level, Embryo Liver, 1 injection ([1]; embryo liver, 1 injection of 10 mg/kg, 4 hr survival): 250
- 6β-naltrexol level, Embryo Liver, 4 injections in 24 hrs ([1]; embryo liver, 4 injections of 10 mg/kg in 24 hrs, 4 hr survival after last dose): 500
- 6β-naltrexol level, Plasma, 1 injection ([1]; plasma, 1 injection of 10 mg/kg, 4 hr survival): 40
- 6β-naltrexol level, Plasma, 4 injections in 24 hrs ([1]; plasma, 4 injections of 10 mg/kg in 24 hrs, 4 hr survival after last dose): 60
- brain levels lower than plasma levels [2]: ~10 fold
- total jumps in the first three time bins (up to 4.5 mins) (pre-weaning age mice; 0.0033 mg/kg, 73+28 with no 6β-naltrexol, p=0.07): 37+29 jumps
- latency-to-first-jump (pre-weaning age mice; 0.01-0.02 mg/kg (1/1000th the dose of morphine)): 118+31 sec
- latency-to-first-jump (pre-weaning age mice; 0.05-0.1 mg/kg (1/200th the dose of morphine)): 163+46 sec
- Survival (pre-weaning age mice; all conditions and all animals tested by this procedure): 100%
- inhibitory dose 50 (ID50), withdrawal jumping (pre-weaning age mice; co-injected with morphine 10-20 mg/kg s.c. PD12-PD18, naloxone 30 mg/kg, jumps in 15 minutes): 0.022 to 0.044 mg/kg
- withdrawal jumping reduced (pre-weaning age mice; highest dose tested, 0.5-1.0 mg/kg (1/20th that of morphine)): 94%
- latency-to-first-jump (pre-weaning age mice; lowest dose (1/3000th the dose of morphine), 38+8 sec with no 6β-naltrexol): 128+44 sec
- decrease in jumping (pre-weaning age mice; lowest dose tested, 0.0033-0.0066 mg/kg (1/3000th that of morphine)): 20%
- ID50 dose lower than the morphine dose used for inducing dependence (pre-weaning age mice; mouse, in vivo): ~500 fold
- ID50 relative to the morphine dose (pre-weaning age mice; ratio of 6β-naltrexol to morphine): 1/450
